According to article PMC9727182, “Identification of pharmacokinetic markers for safflower injection using a combination of system pharmacology, multicomponent pharmacokinetics, and quantitative proteomics study” (Frontiers in Pharmacology, 2022):
Values joined by “and” are separate entries in the source; they are usually repeats but may differ in a detail not shown here. Identical values can stand only once. Blank lines part the entries; values can stand above or below the compound they belong to.

Experiments:
[1] = Multicomponent pharmacokinetics in rat plasma after i.v. safflower injection (SI); conditions: for AUC(0-inf) / AUC(0-t) / Cmax / MRT inf / MRT last / Vd / clearance / half-life / concentration at 15 min: male, Sprague-Dawley, rat, plasma; for AUC(0-inf) / AUC(0-t) / Cmax / MRT inf / MRT last / Vd / clearance / half-life: iv; for concentration at 15 min: intravenous
Method: The animal experiments were approved by the Animal Care and Use Committee of the College of Animal Science (College of Bee Science), Fujian Agriculture and Forestry University (Approval Number: PZCASFAFU21012). 250 ± 20 g of male Sprague-Dawley (SD) rats were provided by Lab Animal Center in Fujian Medical University (Fuzhou, China).
Ten rats were divided into three groups (Low dose group, n = 4; medium and high groups, n = 3, respectively). […] For each rat, 2 ml of physiological saline was supplemented after 30 min sampling via intraperitoneal injection. The plasma samples were obtained by centrifugation at 3,000 rpm for 10 min and stored at −20°C until analysis.
Clear supernatant (5 μl) was injected into HPLC-MS for bioanalysis.
The sample was separated on a RD-C18 column (4.6 mm × 50 mm, 3.5 μm, Zhongpu Develop, China). The mobile phase incudes water with 0.1% acetic acid (A) and acetonitrile (B). […] The column temperature, flow rate and injection volume were set at 30°C, 0.5 ml/min and 5 μl, respectively.
Non-compartmental model was used to calculate the PK parameters by DAS 3.0 software (Chinese Pharmacologic Society, Beijing, China). A single-tailed t-test was carried out in the study.

[2] = Stability of 6 compounds of SI in rat plasma; conditions: for 10h in auto-sampler vials RE: extracted rat plasma; for 6h at room temperature RE / Freeze-thaw stability (three cycles) RE / Long-term stability (-80℃,15 days) RE: rat plasma
Text: The LC-MS method was validated by linearity, limits of detection (LOD), limits of quantification (LOQ), precision, accuracy, extraction recovery, matrix effect and stability of the 6 ingredients in rat plasma. Calibration curves were plotted using weighted linear regression of the peak area ratio of analyte to the IS against the corresponding nominal concentration of the analyte. LOD and LOQ were defined as the detectable concentration at which the ratio of signal to noise was more than 3 and 10, respectively. Intra- and inter-day accuracy and precision were assessed by detecting quality control (QC) samples using five replicates of rat samples at three concentration levels on one or three validation days, respectively. Accuracy and precision were expressed by relative error (RE) and relative standard deviation (RSD), respectively. The extraction recovery and matrix effect of the 6 components at above-mentioned three concentration levels were determined. Stability was assessed under the condition of placing un-treated plasma samples at room temperature for 6 h, and extracted plasma samples in auto-sampler for 10 h, as well as placing plasma samples within freeze-thaw three cycles and at −80 °C for 15 days.

[3] = tested on: H9c2 cardiomyocytes injured by H2O2; assay: Protection of cardiomyocytes injured by H2O2 (MTT); assay type: cell-based; conditions: for protection: preliminary test at maximum detected plasma concentration
Method: H9c2 cardiomyocytes obtained from Cell Bank of the Chinese Academy of Sciences (Shanghai, China) were cultured in DMEM (high glucose) supplemented with 1% P/S and 15% FBS in 5% CO2 at 37°C. The cells were collected with 0.25% trypsin, followed by re-seeding in 96-well multiplates with a density of 5×10^3 cells per well. The cell experiments were grouped as follows: normal group, model group (H2O2), administration groups and positive control groups (N-Acetyl-L-cysteine, NAC). […] After that, cells were incubated with 0.5 mg/ml of MTT for 4 h under standard condition, followed by addition of 150 µl DMSO into every well. The cell supernatants were finally removed and the optical density (OD) was recorded at 570 nm using a microplate reader (Thermo Fisher Scientific, United States). The protection rate of the compounds on H9c2 cardiomyocytes was calculated as (OD valueadministration group (or NAC group)-OD valuemodel group)/(OD valuenormal group-OD valuemodel group) ×100%.

[4] = Stability in diluted SI at room temperature; conditions: analyzed at 0, 2, 4, 8, 12, 24, and 48 h
[5] = 1 h after administration (2 ml/kg of SI), preliminary test

SMILES: C[C@@H]1O[C@@H](OC[C@H]2O[C@@H](Oc3c(-c4ccc(O)c(O)c4)oc4cc(O)cc(O)c4c3=O)[C@H](O)[C@@H](O)[C@@H]2O)[C@H](O)[C@H](O)[C@H]1O [RU, rutin]
detection in rat plasma [1, 5]: can be detected
detection in rat plasma ([1]; behind 15 min after i.v. low dose administration (1 ml/kg of SI)): can’t be detected
AUC(0-inf) ([1]; 4 ml/kg): 15.1 ± 2.23 ng·h/mL
AUC(0-t) ([1]; 4 ml/kg): 12.4 ± 1.37 ng·h/mL
Cmax ([1]; 4 ml/kg): 39.3 ± 1.53 ng/mL
MRT inf ([1]; 4 ml/kg): 21.6 ± 3.6 min
MRT last ([1]; 4 ml/kg): 13.2 ± 1.8 min
Vd ([1]; 4 ml/kg): 0.3 ± 0.02 L/kg
clearance ([1]; 4 ml/kg): 14.3 mL/min/kg
half-life ([1]; 4 ml/kg): 14.4 ± 2.4 min
detected mean maximum plasma concentration ([1]; rats, after administration of 4 ml/kg of SI): 0.039 μg/mL and 0.06 μM
10h in auto-sampler vials RE ([2]; spiked 40 ng/mL): 6.25%
10h in auto-sampler vials RE ([2]; spiked 1000 ng/mL): 2.90%
10h in auto-sampler vials RE ([2]; spiked 10000 ng/mL): -5.96%
6h at room temperature RE ([2]; spiked 40 ng/mL): -4.00%
Freeze-thaw stability (three cycles) RE ([2]; spiked 40 ng/mL): -4.50%
Long-term stability (-80℃,15 days) RE ([2]; spiked 40 ng/mL): 7.00%
6h at room temperature RE ([2]; spiked 1000 ng/mL): -2.48%
Freeze-thaw stability (three cycles) RE ([2]; spiked 1000 ng/mL): -3.06%
Long-term stability (-80℃,15 days) RE ([2]; spiked 1000 ng/mL): 3.36%
6h at room temperature RE ([2]; spiked 10000 ng/mL): -3.71%
Freeze-thaw stability (three cycles) RE ([2]; spiked 10000 ng/mL): 0.09%
Long-term stability (-80℃,15 days) RE ([2]; spiked 10000 ng/mL): -2.80%
protection ([3]; 0.06 μM): absence of protection
Stability RSD [4]: 2.31%

detection in rat plasma [1, 5]: can be detected
AUC(0-inf) ([1]; 1 ml/kg): 67.7 ± 57.2 ng·h/mL
AUC(0-t) ([1]; 1 ml/kg): 62.5 ± 50 ng·h/mL
Cmax ([1]; 1 ml/kg): 305 ± 147 ng/mL
MRT inf ([1]; 1 ml/kg): 7.2 ± 4.2 min
MRT last ([1]; 1 ml/kg): 6 ± 3 min
Vd ([1]; 1 ml/kg): 0.11 ± 0.03 L/kg
clearance ([1]; 1 ml/kg): 20.2 mL/min/kg
half-life ([1]; 1 ml/kg): 4.8 ± 3 min
AUC(0-inf) ([1]; 2 ml/kg): 277 ± 84 ng·h/mL
AUC(0-t) ([1]; 2 ml/kg): 265 ± 89.7 ng·h/mL
Cmax ([1]; 2 ml/kg): 715 ± 85.8 ng/mL
MRT inf ([1]; 2 ml/kg): 19.8 ± 0.6 min
MRT last ([1]; 2 ml/kg): 16.2 ± 1.8 min
Vd ([1]; 2 ml/kg): 0.13 ± 0.07 L/kg
clearance ([1]; 2 ml/kg): 6.67 mL/min/kg
half-life ([1]; 2 ml/kg): 13.2 ± 3.6 min
AUC(0-inf) ([1]; 4 ml/kg): 469 ± 38.1 ng·h/mL
AUC(0-t) ([1]; 4 ml/kg): 433 ± 44.5 ng·h/mL
Cmax ([1]; 4 ml/kg): 1260 ng/mL
MRT inf ([1]; 4 ml/kg): 19.2 ± 2.4 min
MRT last ([1]; 4 ml/kg): 15 ± 2.4 min
Vd ([1]; 4 ml/kg): 0.14 ± 0.03 L/kg
clearance ([1]; 4 ml/kg): 7.5 mL/min/kg
half-life ([1]; 4 ml/kg): 12.6 ± 3 min
10h in auto-sampler vials RE ([2]; spiked 150 ng/mL): -6.50%
10h in auto-sampler vials RE ([2]; spiked 400 ng/mL): 0.06%
10h in auto-sampler vials RE ([2]; spiked 10000 ng/mL): -4.10%
6h at room temperature RE ([2]; spiked 150 ng/mL): -2.67%
Freeze-thaw stability (three cycles) RE ([2]; spiked 150 ng/mL): 0.13%
Long-term stability (-80℃,15 days) RE ([2]; spiked 150 ng/mL): -0.13%
6h at room temperature RE ([2]; spiked 400 ng/mL): -2.50%
Freeze-thaw stability (three cycles) RE ([2]; spiked 400 ng/mL): 3.70%
Long-term stability (-80℃,15 days) RE ([2]; spiked 400 ng/mL): 1.40%
6h at room temperature RE ([2]; spiked 10000 ng/mL): -2.72%
Freeze-thaw stability (three cycles) RE ([2]; spiked 10000 ng/mL): -1.55%
Long-term stability (-80℃,15 days) RE ([2]; spiked 10000 ng/mL): 6.82%
Stability RSD [4]: 3.29%
SMILES: O=C(O)/C=C/c1ccc(O)cc1 [p-CA, p-coumaric acid]
protection ([3]; 8.5 μM): absence of protection

concentration at 15 min ([1]; 2 ml/kg): < 0.5 ng/mL
Stability RSD [4]: 2.51%
SMILES: O=c1c(O)c(-c2ccc(O)c(O)c2)oc2cc(O)cc(O)c12 [quercetin]

SMILES: CC(=O)N[C@@H](CS)C(=O)O [NAC, N-Acetyl-L-cysteine, reference compound]
protection rate ([3]; 1 mM, positive drug): 6.45%

concentration at 15 min ([1]; 2 ml/kg): < 0.5 ng/mL
Stability RSD [4]: 2.81%
SMILES: O=c1ccn([C@@H]2O[C@H](CO)[C@@H](O)[C@H]2O)c(=O)[nH]1 [uridine]

concentration at 15 min ([1]; 2 ml/kg): < 0.5 ng/mL
Stability RSD [4]: 1.85%
SMILES: Nc1ccn([C@@H]2O[C@H](CO)[C@@H](O)[C@H]2O)c(=O)n1 [cytidine]
